Data: publication PMC13490399, “Induced ubiquitination of the partially disordered estrogen receptor alpha via a 14-3-3 directed molecular glue-PROTAC” (Nature Communications, 2026)
“Also recorded” adds a separate entry of the source.

Columns and labels:
14-3-3σ/ERα complex [1] = molecular target: T1, 14-3-3σ/ERα complex (Homo sapiens, UniProt P03372+P31947); assay: FA compound titration to 14-3-3σ/ERα phosphopeptide complex; type: binding; conditions: 1 µM 14-3-3σ and 10 nM ERα peptide
14-3-3σ/ERα complex [2] = molecular target: T1, 14-3-3σ/ERα complex; conditions: previously reported; read-out: EC50, binding to the 14-3-3σ/ERα complex; cited from earlier work
[3] = molecular target: 14-3-3ζ/ERα(LBD_F) complex with CRL2^VHL (Homo sapiens, UniProt P03372+P40337+P63104, F591R/P592R/S305A); assay: In vitro ubiquitination assay (SDS-PAGE, western blot, Alexa Fluor 488 ubiquitin); type: biochemical; conditions: for ubiquitination of the 14-3-3ζ/ERα(LBD_F) complex: Coomassie SDS–PAGE, quantified at 15 min
Procedure: Briefly, the 14-3-3ζ/ERα^(LBD_F) complex was incubated with recombinantly expressed and purified UBE1, UBE2D2, UBE2R1, CRL2^VHL and ubiquitin in the presence of ^MGPROTACs and analysed time-dependently using Coomassie-stained SDS–PAGE (Fig. 6a). Ubiquitin conjugation was rapid with higher molecular weight species evident within 5 min (Supplementary Fig. 21) and were quantified at 15 min by Coomassie-stained SDS–PAGE (Fig. 6b, c and Supplementary Fig. 22).
UBE2D2 was selected as a representative of the promiscuous UBE2D family which is known to work with Cullin RING E3 ligases such as CRL2^VHL[48]–[52]. The UBE2R family is known to be more apt at extending polyubiquitin chains[49]–[51], however recent studies have shown that UBE2R1 and UBE2R2 are also capable of installing the first ubiquitin on degrader-targeted substrates with CRL2^VHL[53],[54].
The reaction was quenched with reducing SDS sample buffer. The protein species were resolved by SDS-PAGE on a 10% bis-tris NuPAGE gel using MOPS running buffer, run at 175 V for 50 min. […] Proteins were transferred to a nitrocellulose membrane either by wet transfer at 90 V for 90 min, or using an iBlot 2 Gel Transfer Device (Invitrogen). […] For an example of presentation of the full scan blots, see Supplementary Fig. S23 or the Source Data file.

[4] = molecular target: His-tagged VCB complex / biotinylated 14-3-3γ / ERα peptide (Homo sapiens, UniProt P03372+P40337+P61981); assay: TR-FRET assay of VCB recruitment to 14-3-3γ with ERα peptide; type: binding; conditions: 20 µM ERα peptide, 50 nM His-VCB, 50 nM biotinylated 14-3-3γ
14-3-3/ERα complex [5] = molecular target: 14-3-3/ERα complex (Homo sapiens, UniProt P03372+P31947); assay: FA 14-3-3 titration to ERα peptide with compound, with or without VCB (14-3-3/ERα stabilization); type: binding; conditions: for stabilization of the 14-3-3/ERα complex with VCB, VCB recruitment / stabilization of the 14-3-3/ERα interaction: 1 µM compound; for stabilization of the 14-3-3/ERα complex with VCB, VCB recruitment: 5 µM VCB; for stabilization of the 14-3-3/ERα interaction: without VCB
NanoLuc–VHL [6] = molecular target: T2, NanoLuc–VHL (Homo sapiens, UniProt P40337); assay: cell-based; conditions: IC50, VHL probe displacement (BRET), live (non-permeabilized) MCF-7 cells, 4 h
NanoLuc–VHL [7] = molecular target: T2, NanoLuc–VHL; conditions: MCF-7 cells, in-cell VHL target engagement
14-3-3/ERα complex [8] = assay: 14-3-3 immunoprecipitation–mass spectrometry (IP–MS) in MCF-7 cells; conditions: MCF-7, 10 μM CV2a, 24 h; not statistically significant (p > 0.05)

Question: With `CC(=O)N[C@H](C(=O)N1C[C@H](O)C[C@H]1C(=O)NCc1ccc(-c2scnc2C)cc1)C(C)(C)C` [VH032, reference compound] as the compound, how does the “binding to the 14-3-3/ERα complex” value (14-3-3σ/ERα complex [1]) read?
Answer: did not engage the 14-3-3/ERα complex

Question: Which EC50 (14-3-3σ/ERα complex [2]) does the source give for `C=CC(C)(C)OC[C@H]1O[C@H](O[C@@H]2C3=C([C@H](C)CNC(C)=O)C[C@H](O)[C@]3(C)/C=C3/[C@@H](COC)CC[C@H]3[C@@H](C)[C@H]2O)[C@H](O)[C@@H](O)[C@@H]1O` [FC-NAc, 3′-deacetylated fusicoccin N-acetyl] here?
Answer: 15 nM

Question: For `C=CC(C)(C)OCC1OC(OC2C3=C(C(C)CNC(=O)CCCCCCCCCCCC(=O)NC(C(=O)N4CC(O)CC4C(=O)NCc4ccc(-c5scnc5C)cc4)C(C)(C)C)CC(O)C3(C)C=C3C(COC)CCC3C(C)C2O)C(O)C(O)C1O` (stereo not drawn) [(S-OH)-CV2a], which “ubiquitination of the 14-3-3ζ/ERα(LBD_F) complex” value [3] is on record?
Answer: completely abrogated ubiquitination

Question: What about the “VCB recruitment to 14-3-3, TR-FRET signal” value [4] of the same compound?
Answer: no TR-FRET signal

Question: What about the “stabilization of the 14-3-3/ERα complex with VCB, VCB recruitment” value (14-3-3/ERα complex [5]) of the same compound?
Answer: failed to recruit VCB

Question: And the “stabilization of the 14-3-3/ERα interaction” value (14-3-3/ERα complex [5])?
Answer: stabilized the 14-3-3/ERα complex similarly to CV2a

Question: Which results are given for `C=CC(C)(C)OCC1OC(OC2C3=C(C(C)CNC(=O)CCC(=O)NC(C(=O)N4CC(O)CC4C(=O)NCc4ccc(-c5scnc5C)cc4)C(C)(C)C)CC(O)C3(C)C=C3C(COC)CCC3C(C)C2O)C(O)C(O)C1O` (stereo not drawn) [CV0a]?
Answer: stabilization of the 14-3-3/ERα complex with VCB, VCB recruitment (14-3-3/ERα complex [5]): negatively cooperative; IC50 (NanoLuc–VHL [6]): > 10000 nM

Question: Which “stabilization of the 14-3-3/ERα interaction” value (14-3-3/ERα complex [5]) does the source give for `COCC1CCC2C1=CC1(C)C(=C(C(C)CNC(C)=O)CC1O)C(OC1OC(CO)C(O)C(O)C1O)C(O)C2C` (stereo not drawn) here?
Answer: stabilizes the 14-3-3/ERα interaction

Question: For `C=CC(C)(C)OCC1OC(OC2C3=C(C(C)CNC(=O)CCOCCOCCOCCC(=O)NC(C(=O)N4CC(O)CC4C(=O)NCc4ccc(-c5scnc5C)cc4)C(C)(C)C)CC(O)C3(C)C=C3C(COC)CCC3C(C)C2O)C(O)C(O)C1O` (stereo not drawn) [CV2p], which “ubiquitination of the 14-3-3ζ/ERα(LBD_F) complex” value [3] is on record?
Answer: robust polyubiquitination

Question: What about the “E2 requirement of ubiquitination” value ([3]; UBE2D2 vs UBE2R1) of the same compound?
Answer: observed only with UBE2D2

Question: What about the “ubiquitination of assembled complex vs apo-14-3-3” value ([3]; up to 24 h) of the same compound?
Answer: preferential ubiquitination of the assembled 14-3-3ζ/ERα^(LBD_F) complex over apo-14-3-3

Question: And the “binding to the 14-3-3/ERα complex” value (14-3-3σ/ERα complex [1])?
Answer: highest apparent potency

Question: Which results are given for `C=CC(C)(C)OCC1OC(OC2C3=C(C(C)CNC(=O)CCCCCCCCCCCCCCCCCC(=O)NC(C(=O)N4CC(O)CC4C(=O)NCc4ccc(-c5scnc5C)cc4)C(C)(C)C)CC(O)C3(C)C=C3C(COC)CCC3C(C)C2O)C(O)C(O)C1O` (stereo not drawn) [CV3a]?
Answer: ubiquitination of the 14-3-3ζ/ERα(LBD_F) complex [3]: robust polyubiquitination; VCB recruitment to 14-3-3, TR-FRET signal [4]: markedly reduced recruitment

Question: For `C=CC(C)(C)OCC1OC(OC2C3=C(C(C)CNC(=O)CCCCCCCCCCCC(=O)NC(C(=O)N4CC(O)CC4C(=O)NCc4ccc(-c5scnc5C)cc4)C(C)(C)C)CC(O)C3(C)C=C3C(COC)CCC3C(C)C2O)C(O)C(O)C1O` (stereo not drawn) [CV2a], which “cell permeability” value (NanoLuc–VHL [7]) is on record?
Answer: cell-permeable

Question: What about the “ubiquitination of the 14-3-3ζ/ERα(LBD_F) complex” value [3] of the same compound?
Answer: robust polyubiquitination

Question: And the “VCB recruitment to 14-3-3, TR-FRET signal” value [4]?
Answer: unable to recruit VHL in the absence of ERα peptide; also recorded: extended recruitment window

Question: What about the “enhancement of ERα binding to 14-3-3, two-dimensional FA titration” value (14-3-3/ERα complex [5]; CV2a titration in the absence of VCB) of the same compound?
Answer: up to 2.5 fold

Question: What about the “enhancement of ERα binding to 14-3-3, two-dimensional FA titration” value (14-3-3/ERα complex [5]; high CV2a and VCB concentrations) of the same compound?
Answer: over 23 fold

Question: What about the “ERα enrichment in the 14-3-3 pull-down” value (14-3-3/ERα complex [8]) of the same compound?
Answer: ~ 2.5 fold
